Changes are numbered by the printed parent chain. Like-named read-outs stand apart in the source and are kept apart here. Marks after values point to notes of the source that are not given here.
Experiments:
[1] = target: T1, THP-1 lysate derived human trimeric ARG2 (Homo sapiens, UniProt P78540); test: THP-1 lysate derived human ARG2 enzyme inhibition assay; type: biochemical
T1 construct: expressed in transfected cells; host or cells: THP-1 cells overexpressing human ARG2 (cell lysate)
T1 sequence (P78540 23-354): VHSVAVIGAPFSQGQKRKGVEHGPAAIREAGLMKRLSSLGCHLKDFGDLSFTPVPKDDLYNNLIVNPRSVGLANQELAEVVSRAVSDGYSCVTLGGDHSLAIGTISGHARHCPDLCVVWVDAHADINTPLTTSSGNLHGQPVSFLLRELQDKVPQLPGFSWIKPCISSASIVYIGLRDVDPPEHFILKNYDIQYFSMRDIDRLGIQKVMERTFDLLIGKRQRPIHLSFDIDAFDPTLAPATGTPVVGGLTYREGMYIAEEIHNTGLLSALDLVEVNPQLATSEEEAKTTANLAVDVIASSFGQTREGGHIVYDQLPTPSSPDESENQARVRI
Experimental: Anti-ARG2 IgGs were tested for their ability to inhibit mammalian expressed human ARG2 produced in transfected THP-1 cells. To do this cell lysates were prepared from THP-1 cells overexpressing human ARG2 and from wild type THP-1 cells. 350 million cells were suspended in 3 ml tris buffered saline (25 mM Tris+150 mM sodium chloride in dH2O, pH 7.4) and cell lysates prepared by passing through a 26G needle 20 times. A BCA assay was used to measure the protein concentration in the lysate. […] Antibodies were tested alongside N-Hydroxyl-L-Arginine (a small molecule competitive inhibitor of ARG2) as a positive control and CEA6 (irrelevant isotype control antibody) as a negative control. Data points were plotted and IC50 values determined using a four parameter fit in GraphPad Prism (FIG. 11, Table 13).
Anti-ARG2 IgGs were tested for their ability to inhibit to mammalian expressed human ARG2 produced in transfected THP-1 cells. […] Urea detection reagents, O-Phthaldialdehyde (1.5 mM O-Phthaldialdehyde, 7% H2SO4, 0.03% Brij L23) and N-(1-Napthyl)ethylenediamine (1.66 mM N-(1-Napthyl)ethylenediamine, 81 mM Boric acid, 21% H2SO4, 0.03% Brij L23) were mixed 1:1 just prior to use and 80 μl/well were added, incubated for 1 hour at room temperature and absorbance at 505 nm was read on a Pherastar plate reader. […]

ARG2 [2] = target: T2, ARG2 (Homo sapiens, UniProt P78540); test: T cell proliferation assay (BrdU, 72 hours) with exogenous ARG2; type: cell-based; conditions: In Absence of rhARG2
T2 sequence (P78540 23-354): T1 sequence (P78540 23-354)
Experimental: (§1) This assay served to provide in vitro evidence of functional efficacy for each antibody.
(§2) Briefly, Leukocyte cones (NHS Blood and Transplant, Watford, UK) underwent Ficoll Plaque (GE, Sweden; Cat: 17-1440-02) gradient separation, PBMC's were extracted and pan T cell population isolated by negative selection using the Human T Cell Enrichment Kit (Stemcell Technologies, France; Cat: 19051) according to the manufacturer's instructions.
(§3) 40000 cells/well were seeded in complete growth media (RMPI 1640, 5% Human Serum Albumin) into a 96 well clear TC treated microplate (Greiner-Bio One, Germany; Cat: 655180). T Cells were activated by the addition of ImmunoCult CD3/CD28 (Stemcell Technologies, France; Cat: 10971) at a dilution of 1:40 directly into wells and the plate incubated 37° C., 5% CO2 for 45 minutes.
(§4) To determine EC50's of test antibodies, a dilution series was created in sterile TBS at 8× the final assay concentration was added to the assay plate containing cells. Plate was incubated for 30 minutes at 37° C., 5% CO2.
(§5) ARG2 was added to relevant wells of the plate at a final concentration of 15 μg/ml. The equivalent volume of ARG2 vehicle and test antibody vehicle was added to relevant control wells. […]
(§6) Calculated data was expressed as % of control (Equation 3) and graphical plots were constructed using a four parameter fit and EC50's determined using model 205 in XLFit (IDBS, UK). […]

trimeric human ARG2 = target: T3, trimeric human ARG2 (Homo sapiens, UniProt P78540); test: Human trimeric ARG2 enzyme inhibition assay (urea production); type: biochemical
T3 construct: human ARG2 (aa23-354); His10 (C); made in house; host or cells: E. coli BL21 (DE3)
T3 sequence (P78540 23-354): T1 sequence (P78540 23-354)
Experimental: Unpurified anti-ARG2 scFv fragments from periplasmic preparations were screened in an ARG2 enzyme inhibition assay using a Pherastar plate reader (BMG Labtech, Germany). In this assay, the ability of unpurified scFv to inhibit the enzymatic activity of trimeric ARG2 was determined by measuring the production of urea, the product of L-arginine turnover by ARG2.
Selection outputs were screened as unpurified bacterial periplasmic extracts containing scFv, prepared in 200 mM TES buffer pH 7.4, 0.5 mM EDTA and 0.5 M sucrose. 10 μl of unpurified scFv were added to a Greiner Bio-One® 384 well assay plate (Greiner Bio-one, UK; cat: 781901). […]
Urea was detected by the simultaneous addition of equal volumes of O-Phthaldialdehyde (1.5 mM O-Phthaldialdehyde, 7% H2SO4, 0.03% Brij L23) and N-(1-Napthyl)ethylenediamine (1.66 mM N-(1-Napthyl)ethylenediamine, 81 mM Boric acid, 21% H2SO4, 0.03% Brij L23) followed by an 18 minute incubation at room temperature before the colorimetric product was quantified on the Pherastar by measuring absorbance at 505 nm. […]
Data were analysed by calculating % maximum (max) control for each sample using the 505 nm absorbance data. % max control was determined according to equation 2. […]
Data were again analysed by calculating % Max control values for each sample. […]

monomeric ARG2 = target: T4, monomeric ARG2 (Homo sapiens, UniProt P78540, E275Q); test: Human monomeric ARG2 enzyme inhibition assay; type: biochemical; conditions: purified recombinant human IgG1, FIG. 5
T4 construct: human ARG2 (aa23-354); His10 (C); made in house; host or cells: E. coli
T4 sequence (P78540 23-354 E275Q): T1 sequence (P78540 23-354) with E253Q
Experimental: ARG2 specific recombinant IgG1 were screened for their ability to inhibit enzymatic activity of monomeric ARG2. In this assay, the ability of ARG2 specific recombinant IgG1 to inhibit the enzymatic activity of monomeric ARG2 was determined by measuring the production of urea, the product of L-arginine turnover by monomeric ARG2.
IC50 values were determined by testing a dilution series of the ARG2 specific recombinant IgG1, prepared in TBS.
10 μl of ARG2 specific recombinant IgG1 (dilution series) were added to a Greiner Bio-One® 384 well assay plate (Greiner Bio-one, UK; cat: 781901). […]
Urea was detected by the simultaneous addition of equal volumes of O-Phthaldialdehyde (1.5 mM O-Phthaldialdehyde, 7% H2SO4, 0.03% Brij L23) and N-(1-Napthyl)ethylenediamine (1.66 mM N-(1-Napthyl)ethylenediamine, 81 mM Boric acid, 21% H2SO4, 0.03% Brij L23) followed by an 18 minute incubation at room temperature before the colorimetric product was quantified on the Pherastar by measuring absorbance at 505 nm.
ARG2 specific recombinant IgG1 were tested alongside N-Hydroxyl-L-Arginine (a small molecule competitive inhibitor of ARG2) as a positive control and NIP228 (irrelevant isotype control antibody) as a negative control. Data points were plotted and IC50 values determined using a four parameter fit in GraphPad Prism (FIG. 5).

ARG2 [3] = target: T2, ARG2; test: T cell proliferation assay (BrdU, 72 hours) with exogenous ARG2; type: cell-based; design: human ARG2 (aa23-354); His10 (C); made in house; host or cells: E. coli BL21 (DE3); conditions: In Presence of rhARG2, NHLA value at 0.444 mM
Experimental: as §1, §2, §3, §4, §5, §6

both ARG isoforms = conditions: cited from earlier work; for Kd: both ARG isoforms at physiologic pH, read-out: binding constant (KD)

Work on `NC(=NO)NCCC[C@H](N)C(=O)O` [NHLA, NG-Hydroxy-L-arginine, reference compound] yielded an IC50 ([1]; methods of section 2.8, FIG. 16, read-out: THP-1 ARG2 EIA IC50) of 12900 nM, an IC50 ([1]; recombinant human IgG1, lysate without plasma (section 3.3), FIG. 13, read-out: THP-1 lysate ARG2 EIA IC50) of 4750 nM and an EC50 (ARG2 [2]) of less than 1800 nM. For the same compound, the “Maximum % Proliferation” value (ARG2 [2]) was 80%, the “inhibition of the activity of human trimeric ARG2” value (trimeric human ARG2; purified recombinant human IgG1, FIG. 3) was “able to inhibit” and the “inhibition of the activity of human trimeric ARG2” value (trimeric human ARG2; purified scFv, FIG. 2) was “able to inhibit”. The “inhibition of the activity of human monomeric ARG2” value (monomeric ARG2) was “able to inhibit” and the “Maximum % Proliferation” value (ARG2 [3]) was 49* %.
For `N[C@@H](CSCCB(O)O)C(=O)O` [BEC, S-(2-boronoethyl)-L-cysteine], the Kd (both ARG isoforms) is given as roughly 300 nM.
For `N[C@@H](CCCCB(O)O)C(=O)O` [ABH, 2(S)-amino-6-boronohexanoic acid], the Kd (both ARG isoforms) is given as roughly 300 nM.
For `N=C(N)NCCC[C@H](N)C(=O)O` [L-arginine], the Km (both ARG isoforms; natural substrate of arginase) is given as 5 mM.

Reference: patent US20220403048A1, “BINDING MOLECULES TO ARGINASE II [ARG2]” (Cancer Research Technology Limited, priority 2019, published 2022)
